According to PubChem BioAssay (NCI):
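All cell lines were grown in 96-well plates and treated with compound for 48 hours. TGI denotes the concentration required for complete inhibition of growth.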

What was measured:
Assay in all cases: NCI anticancer screen, dose series, 48 h
ACHN renal = tested on: ACHN renal
BT-549 breast = tested on: BT-549 breast
COLO 205 colon = tested on: COLO 205 colon
HCT-15 colon = tested on: HCT-15 colon
IGROV1 ovarian = tested on: IGROV1 ovarian
MDA-N = tested on: MDA-N
NCI-H226 lung = tested on: NCI-H226 lung
NCI-H23 lung = tested on: NCI-H23 lung
RPMI-8226 leukemia = tested on: RPMI-8226 leukemia
SF-295 CNS = tested on: SF-295 CNS
SF-539 CNS = tested on: SF-539 CNS
SK-MEL-2 melanoma = tested on: SK-MEL-2 melanoma
SK-MEL-28 melanoma = tested on: SK-MEL-28 melanoma
SN12C renal = tested on: SN12C renal
SNB-19 CNS = tested on: SNB-19 CNS
SNB-75 CNS = tested on: SNB-75 CNS
SR leukemia = tested on: SR leukemia
U251 CNS = tested on: U251 CNS
UO-31 renal = tested on: UO-31 renal
CCRF-CEM leukemia = tested on: CCRF-CEM leukemia

| SMILES | TGI (ACHN renal) [µM] | TGI (BT-549 breast) [µM] | TGI (COLO 205 colon) [µM] | TGI (HCT-15 colon) [µM] | TGI (IGROV1 ovarian) [µM] | TGI (MDA-N) [µM] | TGI (NCI-H226 lung) [µM] | TGI (NCI-H23 lung) [µM] | TGI (RPMI-8226 leukemia) [µM] | TGI (SF-295 CNS) [µM] | TGI (SF-539 CNS) [µM] | TGI (SK-MEL-2 melanoma) [µM] | TGI (SK-MEL-28 melanoma) [µM] | TGI (SN12C renal) [µM] | TGI (SNB-19 CNS) [µM] | TGI (SNB-75 CNS) [µM] | TGI (SR leukemia) [µM] | TGI (U251 CNS) [µM] | TGI (UO-31 renal) [µM] | TGI (CCRF-CEM leukemia) [µM] |
| --- | --- | --- | --- | --- | --- | --- | --- | --- | --- | --- | --- | --- | --- | --- | --- | --- | --- | --- | --- | --- |
| CC(Oc1ccccc1Cl)C(=O)NN1C(=O)CC(=O)N(c2ccc(Cl)cc2)C1=S (configuration not stated) | > 100 | > 100 | > 100 | > 100 | > 100 | > 100 | > 100 | > 100 | > 100 | > 100 | > 100 | 98.2 | > 100 | > 100 | > 100 | > 100 | 54.4 | > 100 | > 100 | – |
| COc1cc(OC)c2c(=O)c3cccc(C)c3n(C)c2c1 | > 100 | > 100 | > 100 | > 100 | > 100 | > 100 | > 100 | > 100 | 58.9 | > 100 | > 100 | > 100 | > 100 | > 100 | > 100 | > 100 | > 100 | > 100 | – | > 100 |
| O=C1CSC(c2ccccc2O)N1c1ccc(-n2c(-c3ccccc3)nc3ccccc3c2=O)cc1 (configuration not stated) | 83.6 | 61.5 | > 100 | 60.1 | 93.9 | > 100 | 97.5 | > 100 | > 100 | 50.5 | 58.9 | 59.1 | > 100 | > 100 | > 100 | > 100 | > 100 | > 100 | 77.2 | > 100 |
| C[C@@H]1CC[C@H]2[C@H](C)C(OC3O[C@@H]4O[C@@]5(C)CC[C@H]6[C@H](C)CC[C@@H]([C@@H]3C)[C@@]46O5)O[C@@H]3O[C@@]4(C)CC[C@@H]1[C@]32O4 (some centres not stated) | > 100 | > 100 | > 100 | > 100 | – | > 100 | > 100 | > 100 | > 100 | > 100 | > 100 | > 100 | > 100 | > 100 | > 100 | > 100 | > 100 | > 100 | – | > 100 |
| O=CNc1ccccc1OCCOc1ccccc1NC=O | > 100 | > 100 | > 100 | > 100 | > 100 | > 100 | > 100 | > 100 | > 100 | > 100 | > 100 | > 100 | > 100 | > 100 | > 100 | > 100 | > 100 | > 100 | > 100 | > 100 |
| COc1cc(C2c3cc4c(cc3C(=O)C3CCC(=O)N32)OCO4)cc(OC)c1O (configuration not stated) | > 50 | > 50 | > 50 | > 50 | > 50 | > 50 | > 50 | > 50 | > 50 | > 50 | > 50 | > 50 | > 50 | > 50 | > 50 | > 50 | > 50 | > 50 | > 50 | > 50 |
| CC(Cn1c2c(c3cc(O)ccc31)CCc1ccc(O)cc1-2)N(C)C (configuration not stated) | 30.1 | 36.8 | – | 30.2 | 29.1 | 48.1 | 37.3 | 41.2 | > 100 | 45.4 | 32.1 | 31.1 | – | 68.9 | 37.4 | 51.2 | > 100 | > 100 | 28.3 | > 100 |
| Cc1c(/C=N/NC(=S)N2CCCCC2)c(=O)n(-c2ccccc2)n1C | 98.5 | > 100 | > 100 | > 100 | > 100 | > 100 | > 100 | > 100 | > 100 | > 100 | > 100 | – | > 100 | – | > 100 | > 100 | > 100 | > 100 | > 100 | > 100 |
| O=C1Cc2cn[nH]c2-c2ccccc2N1 | > 55.7 | 61.5 | > 64 | > 63.3 | > 100 | > 100 | > 100 | > 100 | 66.1 | > 100 | > 100 | > 83.8 | > 100 | > 63.9 | > 100 | > 100 | 71.8 | > 61.6 | > 100 | 53.1 |
| O=c1[nH][nH]c(=O)c2c1ccc1oc3ccccc3c12 | > 100 | > 100 | > 100 | – | > 100 | > 100 | > 100 | > 100 | > 100 | > 100 | > 100 | > 100 | > 100 | > 100 | > 100 | > 100 | > 100 | > 100 | > 100 | > 100 |
| Cc1sc2nc3n(c(=O)c2c1C)N=CN(c1ccc(Cl)cc1)C3 | > 100 | > 100 | > 100 | > 100 | > 100 | > 100 | > 100 | > 100 | > 100 | > 100 | – | > 100 | > 100 | > 100 | > 100 | > 100 | > 100 | > 100 | > 100 | > 100 |
| O=C1NC2(CCNCC2)Oc2ccccc21 | > 100 | > 100 | > 100 | > 100 | > 100 | > 100 | > 100 | > 100 | > 100 | > 100 | > 100 | > 100 | > 100 | > 100 | > 100 | > 100 | > 100 | > 100 | > 100 | > 100 |
| COc1cc2cc(C(=O)N3CC(CCl)c4ccc([N+](C)(C)Cc5ccccc5[N+](=O)[O-])cc43)[nH]c2c(OC)c1OC (configuration not stated) | > 100 | 6.29 | 14.9 | > 100 | 17.7 | 6.49 | 19.5 | 4.9 | 5.3 | 36.5 | 5.38 | 4.44 | 11.4 | 26.4 | 9.76 | 24.7 | 4.39 | 26.4 | 5.17 | > 23.8 |
| Cc1ccc(S(=O)(=O)N/N=C2/CCC3(O)CC2(C)CCC2[C@H]3CC2(C)C)cc1 (some centres not stated) | > 100 | 86.4 | 33.1 | > 100 | 74.3 | 92 | 70.9 | 83.5 | > 100 | 93 | – | 69.2 | 61.2 | > 100 | > 100 | 87.3 | > 100 | 36 | 68.6 | 86.1 |
| CCCCCCCCCCCCCCCCNC(=O)/C(=C\c1ccc(Cl)c(Cl)c1)NC(=O)c1ccccc1 | > 100 | > 100 | > 100 | > 100 | 41.4 | > 100 | 56.8 | 52.6 | 58.5 | > 100 | 30.8 | > 100 | > 100 | 81.5 | > 100 | 33.1 | 90.7 | > 100 | > 100 | – |
| O=[N+]([O-])/C(Cl)=C(/C(Cl)=C(Cl)Cl)N1CCOCC1 | 20.5 | 8.86 | 5.45 | 3.24 | 3.88 | 6.77 | 40.4 | 5.68 | 6.58 | 25.8 | 9.05 | 11.6 | 34.3 | 20 | 38.3 | 17.9 | 6.42 | 27 | 12.8 | 7.23 |
| CC1=NN(c2nc(N)nc(/C(C#N)=C\c3ccc(-c4ccc([N+](=O)[O-])cc4)o3)n2)C(C)(C)C1 | > 100 | > 100 | > 100 | > 100 | > 100 | > 100 | > 100 | > 100 | > 100 | > 100 | > 100 | > 100 | > 100 | > 100 | > 100 | 51.6 | > 100 | > 100 | > 100 | > 100 |
| CSc1nc(=O)cnn1C | > 100 | > 100 | > 100 | > 100 | > 100 | > 100 | > 100 | > 100 | > 100 | > 100 | – | > 100 | > 100 | > 100 | > 100 | > 100 | > 100 | > 100 | > 100 | > 100 |
| CC(C)(C)O/N=C/c1cc(NC(=S)c2ccsc2)ccc1Cl | – | 27 | 28.3 | 27.7 | 34.9 | 29.8 | 35.9 | 20.7 | 12.2 | 25.3 | 37 | 29.5 | 39.2 | 32.2 | – | 77.4 | 13.9 | 43.8 | 24.6 | 57.3 |
| Cc1ccc2nc(NS(=O)(=O)c3cc(C)c(Cl)cc3S)[nH]c2c1 | > 100 | > 100 | > 100 | > 100 | > 100 | > 100 | – | > 100 | > 100 | > 100 | > 100 | > 100 | > 100 | > 100 | > 100 | > 100 | > 100 | > 100 | > 100 | 69.8 |
| Cc1nn(C(=O)c2ccncc2)c2c1C(c1ccccc1[N+](=O)[O-])SC(N)=N2 (configuration not stated) | > 10 | > 10 | > 10 | > 10 | > 10 | > 10 | > 10 | > 10 | > 10 | > 10 | > 10 | > 10 | > 10 | > 10 | > 10 | > 10 | > 10 | – | – | > 10 |
| COc1ccc(-c2nc(Nc3ccccc3)sc2Cc2sc(Nc3ccccc3)nc2-c2ccc(OC)cc2)cc1 | > 100 | > 100 | > 100 | > 100 | > 100 | > 100 | > 100 | > 100 | > 100 | – | > 100 | – | > 100 | > 100 | > 100 | > 100 | > 100 | > 100 | > 100 | > 100 |
| CC(=O)N1C(Nc2nccs2)CCN1c1ccccc1 (configuration not stated) | > 10 | > 10 | > 10 | > 10 | > 10 | > 10 | > 10 | > 10 | > 10 | > 10 | > 10 | > 10 | > 10 | > 10 | > 10 | > 10 | > 10 | – | – | > 10 |
| C=CCN1CCC(c2cc(C(=O)OCC)[nH]c2-c2cc(C)no2)C1=O (configuration not stated) | – | > 100 | > 100 | > 100 | > 100 | > 100 | > 100 | > 100 | > 100 | > 100 | > 100 | > 100 | > 100 | > 100 | > 100 | > 100 | > 100 | > 100 | > 100 | > 100 |
